Assay results from patent publication US20240043448A1, “Small Molecule Inhibitors of KRAS G12C Mutant” (Merck Sharp & Dohme LLC, priority 2019, published 2024).
Where two headings read alike, the source gives them in different places.

Key:
[1] = target: Biotinylated KRAS G12C protein (Homo sapiens (Human), UniProt P01116, C118S/C51S/C80L/G12C); assay: SOS-catalyzed nucleotide exchange assay (TR-FRET); type: biochemical; conditions: in vitro apparent potency; preincubation time of 60 minutes prior to addition of SOS
Experimental: The SOS-catalyzed nucleotide exchange assay utilizes a preformed complex of recombinant biotinylated KRAS protein containing G12C/C51S/C80L/C118S mutations (183 amino acids; biotin on K10; leader sequence which is an AviTag; referred to as SEQ ID NO: 1 or “Biotinylated KRAS G12C protein” hereafter), Bodipy-GDP, and Terbium-streptavidin. Compounds are added to this complex and then after incubation for 60 minutes, the mixture is treated with recombinant SOS protein and unlabeled GTP. Small molecule inhibitors stabilize the Bodipy-GDP complex whereas the untreated protein rapidly exchanges Bodipy-GDP for unlabeled GTP resulting in reduced TR-FRET signal.
Biotinylated KRAS G12C protein (SEQ ID NO: 1) is diluted to 2 μM in an EDTA buffer (20 mM HEPES, 150 mM sodium chloride, 10 mM EDTA, and 0.01% Tween) and incubated at room temperature for one hour. This mixture is then further diluted to 90 nM in an assay buffer (20 mM HEPES, 150 mM sodium chloride, 10 mM magnesium chloride, and 0.005% Tween) containing 15 nM of Terbium-Streptavidin (Invitrogen, catalog #PV3577) and 900 nM of Bodipy-GDP and incubated at room temperature for six hours. This solution is referred to as Biotinylated KRAS G12C mixture.
Each test compound (10 mM stock in DMSO) is diluted in DMSO to make a 10-point, 3-fold dilution series in a 384-well low dead volume microplate (Labcyte, catalog #LP-0200). Once titrations are made, 10 nL of the diluted compounds is acoustically dispensed into a 384-well plate (Corning, catalog #3820) using an Echo 550 (Labcyte).
Each well of the plate receives 3 μL Biotinylated KRAS G12C mixture that had been incubating for six hours and 3 μL of assay buffer using a BioRAPTR (Beckman Coulter) and is incubated at room temperature for 60 minutes. Each well then receives 3 μL of 240 nM recombinant human SOS protein and 9 mM GTP (Sigma, G8877) in assay buffer and is incubated at room temperature for 60 minutes.
The time-resolved fluorescence resonance energy transfer signal of the plate is measured on an Envision (PerkinElmer) plate reader: Excitation filter=340 nm; emission1=495 nm; emission2=520 nm; dichroic mirror=D400/D505; delay time=100 μs. The signal of each well is determined as the ratio of the emission at 520 nm to that at 495 nm. Percent effect of each well is determined after normalization to control wells containing DMSO (no effect) or a saturating concentration of inhibitor (max effect). The apparent effect as a function of compound concentration is fit to a four parameter logistic equation.

phospho-ERK = assay: Cellular phospho-ERK assay; type: cell-based; conditions: NCI-H358 cells, 2 hour incubation, ratio of p-Erk vs total Erk, read-out: IC50 (nM) pERK (Cell)
Experimental: NCI-H358 cells (ATCC® CRL-5807™) were cultured in T150 flask in growth medium (RPMI medium 1640-GlutaMAX™-I (ThermoFisher Scientific 61870) containing 10% fetal bovine serum (ThermoFisher Scientific 10091148)). The cells were harvested in growth medium after TrypLE (ThermoFisher scientific 12604021) digestion and were seeded in a 384-well collagen coated cell culture plate (Corning 356702) at a density of 15,000 cells/well, and incubated at 37° C., 5% CO2 overnight. The compound dose-response titrations were prepared and appropriate amounts of compounds were dispensed in a 384-well intermediate plate using an Echo 550 liquid handler. RPMI medium 1640-GlutaMAX™-I were added to the intermediate plate and transferred to 384-well cell culture plate, which was incubated at 37° C., 5% CO2 for 2 hours. After removal of medium from the plate, cells were lysed in lysis buffer from Alpha SureFire® Ultra™ Multiplex p-Erk and total Erk assay kit (PerkinElmer MPSU-PTERK) containing Halt™ Protease and Phosphotase inhibitor cocktail (ThermoFisher Scientific 78446) at room temperature with constant shaking at 300 rpm for 30 minutes. The cell lysates were then transferred to OptiPlate-384 plate (PerkinElmer 6005620) and the phosphorylation of Erk and total Erk levels were detected by Alpha SureFire Ultra Multiplex p-Erk kit (PerkinElmer MPSU-PTERK) following the manufacturer's protocol. Assay plates were read on an EnVision Multimode Plate Reader (PerkinElmer), and the ratio of p-Erk vs total Erk in each well was used as the final readout. Dose response curves were analyzed using a 4-parameter logistic model to calculate IC50 values using spotfire software.

Sequence of Biotinylated KRAS G12C protein (P01116 other isoform, or with tags, fused parts or gaps, stated change not applied): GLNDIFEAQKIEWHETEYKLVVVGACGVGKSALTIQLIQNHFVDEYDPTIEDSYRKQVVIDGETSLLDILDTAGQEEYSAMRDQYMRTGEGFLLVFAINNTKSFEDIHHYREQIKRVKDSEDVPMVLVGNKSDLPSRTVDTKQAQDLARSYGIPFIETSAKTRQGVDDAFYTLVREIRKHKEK

Compound | IC50 [1] [nM] | IC50 (phospho-ERK) [nM] | IC50 (phospho-ERK; Homo sapiens, NCI-H358, 2 h) [nM]
C=CC(=O)N1CCN(c2nc(=O)n3c4nc(c(F)cc24)-c2cccc4cnn(c24)CCCOc2ccnc(C(C)C)c2-3)[C@H](C)C1 [Example 3b, 22-fluoro-2-[(2S)-2-methyl-4-(prop-2-enoyl)piperazin-1-yl]-6-(propan-2-yl)-12,13-dihydro-4H,11H-1,20-ethenopyrido[4′,3′:2,3]pyrimido[1′,6′:4,5][1,4,6,10]oxatriazacyclotridecino[8,9,10-hi]indazol-4-one] | 15 | 93 | –
C=CC(=O)N1CCN(c2nc(=O)n3c4nc(c(F)cc24)-c2c(F)cccc2OCCCCc2ccnc(C(C)C)c2-3)[C@H](C)C1 [Example 4b, 18,21-Difluoro-2-[(2S)-2-methyl-4-(prop-2-enoyl)piperazin-1-yl]-6-(propan-2-yl)-10,11,12,13-tetrahydro-4H-1,19-ethenopyrido[4,3-f]pyrimido[1,6-h][1,8,10]benzoxadiazacyclotridecin-4-one] | 6890 | 1160 | –
C=CC(=O)N1CCN(c2nc(=O)n3c4nc(c(F)cc24)-c2ccnn2CCCCc2ccnc(C(C)C)c2-3)[C@@H](C)C1 [Example 5, 20-fluoro-2-[(2S)-2-methyl-4-(prop-2-enoyl)piperazin-1-yl]-6-(propan-2-yl)-10,11,12,13-tetrahydro-4H-1,18-(ethanediylidene)-pyrazolo[5,1-e]pyrido-[4,3-k]pyrimido[1,6-a]-[1,3,6]triazacyclododecin-4-one] | 898 | – | 4440
C=CC(=O)N1CCN(c2nc(=O)n3c4nc(c(F)cc24)-c2cccc4cnn(c24)CCCCc2ccnc(C(C)C)c2-3)[C@@H](C)C1 [Example 6, 22-fluoro-2-[(2S)-2-methyl-4-(prop-2-enoyl)piperazin-1-yl]-6-(propan-2-yl)-10,11,12,13-tetrahydro-4H-1,20-(ethanediylidene)-pyrido[4′,3′:12,13]pyrimido-[1′,6′:1,2][1,3,7]triazacyclo-tridecino[5,6,7-hi]indazol-4-one] | 9.2 | – | 45
C=CC(=O)N1[C@H](C)CN(c2nc(=O)n3c4nc(c(F)cc24)-c2c(F)cccc2OCCCCc2ccnc(C(C)C)c2-3)C[C@@H]1C [Example 7, 2-[(3R,5S)-3,5-dimethyl-4-(prop-2-enoyl)piperazin-1-yl]-18,21-difluoro-6-(propan-2-yl)-10,11,12,13-tetrahydro-4H-1,19-ethenopyrido[4,3-f]pyrimido[1,6-h][1,8,10]benzoxadiazacyclotridecin-4-one] | 6.9 | 34 | –
C=CC(=O)N1C[C@H](C)N(c2nc(=O)n3c4nc(c(F)cc24)-c2c(F)cccc2OCCCCc2ccnc(C(C)C)c2-3)C[C@H]1C [Example 8, 2-[(2S,5R)-2,5-dimethyl-4-(prop-2-enoyl)piperazin-1-yl]-18,21-difluoro-6-(propan-2-yl)-10,11,12,13-tetrahydro-4H-1,19-ethenopyrido[4,3-f]-pyrimido[1,6-h][1,8,10]ben-zoxadiazacyclotridecin-4-one] | 3.5 | – | 2.2
C=CC(=O)N1CCN(c2nc(=O)n3c4nc(c(Cl)cc24)-c2c(F)cccc2OCCc2ccccc2-3)[C@@H](C)C1 [Example 9, 19-chloro-16-fluoro-2-[(2S)-2-methyl-4-(prop-2-enoyl)piperazin-1-yl]-10,11-dihydro-4H-1,17-ethenodibenzo[b,h]pyrimido[6,1-f][1,5,7]oxadiazacycloundecin-4-one] | 1410 | 3830 | –
C=CC(=O)N1CCN(c2nc(=O)n3c4nc(c(F)cc24)-c2c(F)cccc2OCCCCc2cnc(C(C)C)c-3c2)[C@H](C)C1 [Example 16b, 19,22-difluoro-2-[(2S)-2-methyl-4-(prop-2-enoyl)piperazin-1-yl]-7-(propan-2-yl)-11,12,13,14-tetrahydro-4H-1,20-(ethanediylidene)-6,10-(metheno)pyrimido[1,6-k][1,8,11,13]benzoxatriazacyclohexadecin-4-one] | 10 | 109 | –
C=CC(=O)N1CCN(c2nc(=O)n3c4nc(c(F)cc24)-c2c(F)cccc2CCOCCc2ccnc(C(C)C)c2-3)[C@@H](C)C1 [Example 17a, 18,21-difluoro-2-[(2S)-2-methyl-4-(prop-2-enoyl)piperazin-1-yl]-6-(propan-2-yl)-10,11,13,14-tetrahydro-4H-1,19-ethenopyrido[3,4-e]pyrimido[6,1-c][9,2,4]benzoxadiazacyclotridecin-4-one] | 11 | 66 | –
C=CC(=O)N1CCN(c2nc(=O)n3c4nc(c(F)cc24)-c2c(F)cccc2CCOCCc2ccnc(C(C)C)c2-3)[C@H](C)C1 [Example 17b, 18,21-difluoro-2-[(2S)-2-methyl-4-(prop-2-enoyl)piperazin-1-yl]-6-(propan-2-yl)-10,11,13,14-tetrahydro-4H-1,19-ethenopyrido[3,4-e]pyrimido[6,1-c][9,2,4]benzoxadiazacyclotridecin-4-one] | 370 | 1180 | –
C=CC(=O)N1CCN(c2nc(=O)n3c4nc(c(F)cc24)-c2c(F)cccc2COCCc2ccnc(C(C)C)c2-3)[C@@H](C)C1 [Example 18a, 17,20-difluoro-2-[(2S)-2-methyl-4-(prop-2-enoyl)piperazin-1-yl]-6-(propan-2-yl)-10,11-dihydro-1,18-ethenopyrido[3,4-e]pyrimido[6,1-c][9,2,4]benzoxadiazacyclododecin-4(13H)-one] | 10 | 35 | –
C=CC(=O)N1CCN(c2nc(=O)n3c4nc(c(F)cc24)-c2c(F)cccc2C(=O)NCCCc2ccnc(C(C)C)c2-3)[C@H](C)C1 [Example 19b, 18,21-difluoro-2-[(2S)-2-methyl-4-(prop-2-enoyl)piperazin-1-yl]-6-(propan-2-yl)-10,11,12,13-tetrahydro-1,19-ethenopyrido[3,4-e]pyrimido[6,1-c][2,4,10]benzotriazacyclotridecine-4,14-dione] | 4520 | > 30000 | –
C=CC(=O)N1CC(C)N(c2nc(=O)n3c4nc(c(Cl)cc24)-c2c(F)ccc(F)c2OCCOc2ccnc(C(C)C)c2-3)CC1C [Example 50, (5aSa,17aRa)-20-chloro-2-[(2S,5R)-2,5-dimethyl-4-(prop-2-enoyl)piperazin-1-yl]-14,17-difluoro-6-(propan-2-yl)-11,12-dihydro-4H-1,18-(ethanediylidene)pyrido[4,3-e]pyrimido[1,6-g][1,4,7,9]benzodioxadiazacyclododecin-4-one] | 1.1 | 4.4 | –
C=CC(=O)N1C[C@@H](C)N(c2nc(=O)n3c4nc(c(Cl)cc24)-c2c(F)ccc(F)c2OCCOc2ccnc(C(C)C)c2-3)C[C@@H]1C [Example 51-1, (5aSa,17aRa)-20-Chloro-2-[(2S,5R)-2,5-dimethyl-4-(prop-2-enoyl)piperazin-1-yl]-14,17-difluoro-6-(propan-2-yl)-11,12-di[(^2H)hydro](11,12-^2H2)-4H-1,18-(ethanediylidene)pyrido[4,3-e]pyrimido[1,6-g][1,4,7,9]benzodioxadiazacyclododecin-4-one] | 1 | 13 | –
